{"source": "paper PMC9127750", "about": "“Structure-based design of CDC42 effector interaction inhibitors for the treatment of cancer” (Cell reports, 2022)", "system": "WM3248 melanoma cells, 486 antibodies", "assay": "Reverse phase protein arrays (RPPA)", "assay_type": "cell-based, Human", "conditions": "20 uM, single replicates", "description": "Pellets were snap frozen in liquid nitrogen and shipped to MD Anderson Cancer Center core RPPA facility for RPPA analysis (Table S5). Three biological replicates for each sample were generated.\nNomenclatures on the RPPA heatmaps: name_of_antibody.species_of_antibody.status_of_antibody. V - antibody validated; C - validation of antibody in progress; Q - antibody nonspecific; E – under evaluation; antibodies raised in M - mouse, G - goat, R - rabbit, or T - rat.", "note": "Values joined by “and” are separate entries in the source; they are usually repeats but may differ in a detail not shown here. Identical values can stand only once.", "data": [{"smiles": "CN(C)c1cccc(Nc2cc(-c3ccccc3)nc(C3CCNCC3)n2)c1", "note": "[ARN22089, N1,N1-dimethyl-N3-(6-phenyl-2-(piperidin-4-yl)pyrimidin-4-yl)benzene-1,3-diamine]", "values": [{"measurement": "RPPA level HSP60.R.V", "result": "1.015 and 0.888 and 1.096"}, {"measurement": "RPPA level HSP70.R.C", "result": "1.026 and 1.351 and 1.104"}, {"measurement": "RPPA level Hexokinase.I.R.C", "result": "0.978 and 0.986"}, {"measurement": "RPPA level Hexokinase.II.R.V", "result": "1.256 and 0.762 and 0.871"}, {"measurement": "RPPA level Hif.1αR.C", "result": "0.972 and 1.096 and 0.645"}, {"measurement": "RPPA level Histone.H3.R.V", "result": "1.540 and 13.252 and 0.726"}, {"measurement": "RPPA level Histone.H3_pS10.R.V", "result": "1.398 and 3.688 and 0.992"}, {"measurement": "RPPA level IDO.R.C", "result": "0.839 and 1.159"}, {"measurement": "RPPA level IGF1R_pY1135_Y1136.R.V", "result": "0.898 and 1.026 and 1.052"}, {"measurement": "RPPA level IGFBP2.R.V", "result": "0.627 and 0.801 and 1.270"}, {"measurement": "RPPA level IGFBP3.M.V", "result": "0.715 and 1.003 and 1.004"}, {"measurement": "RPPA level IGFRb.R.C", "result": 1.190}, {"measurement": "RPPA level IL.6.R.C", "result": "0.855 and 1.111 and 1.060"}, {"measurement": "RPPA level IMP3.R.C", "result": "1.052 and 1.022 and 0.974"}, {"measurement": "RPPA level INPP4b.R.C", "result": "1.077 and 0.833 and 0.806"}, {"measurement": "RPPA level IR.b.R.C", "result": "0.907 and 1.208 and 1.333"}, {"measurement": "RPPA level IRF.1.R.V", "result": "0.730 and 0.964 and 1.168"}, {"measurement": "RPPA level IRF.3.R.V", "result": "0.995 and 0.906 and 0.945"}, {"measurement": "RPPA level IRS1.R.V", "result": "1.014 and 1.159 and 1.141"}, {"measurement": "RPPA level IRS2.R.C", "result": "1.278 and 1.343 and 1.011"}, {"measurement": "RPPA level JAB1.M.C", "result": "0.955 and 0.936 and 1.024"}, {"measurement": "RPPA level JNK2.R.V", "result": "0.819 and 0.805 and 1.152"}, {"measurement": "RPPA level JNK_pT183_Y185.R.C", "result": "0.945 and 1.049 and 1.120"}, {"measurement": "RPPA level Jagged1.R.V", "result": "0.981 and 1.189"}, {"measurement": "RPPA level Jak2.R.V", "result": "1.014 and 1.017"}, {"measurement": "RPPA level KAP1.R.V", "result": "1.154 and 0.878"}, {"measurement": "RPPA level KEAP1.R.V", "result": "1.208 and 0.814 and 0.859"}, {"measurement": "RPPA level LAD1.R.V", "result": "0.839 and 1.022 and 1.196"}, {"measurement": "RPPA level LC3A.B.R.C", "result": "1.392 and 1.015"}, {"measurement": "RPPA level LCN2.R.V", "result": "2.637 and 0.737 and 1.009"}, {"measurement": "RPPA level LDHA.R.C", "result": "0.867 and 0.798 and 1.272"}, {"measurement": "RPPA level LRP6_pS1490.R.V", "result": 0.973}, {"measurement": "RPPA level Lasu1.R.V", "result": "1.275 and 1.065 and 0.935"}, {"measurement": "RPPA level Lck.R.V", "result": "1.245 and 1.124 and 1.192"}, {"measurement": "RPPA level Lyn.R.V", "result": "1.188 and 0.948"}, {"measurement": "RPPA level MACC1.R.V", "result": "1.006 and 1.026 and 0.991"}, {"measurement": "RPPA level MAPK_pT202_Y204.R.C", "result": "0.788 and 0.541 and 0.701"}, {"measurement": "RPPA level MCT4.R.V", "result": "0.646 and 0.854 and 1.188"}, {"measurement": "RPPA level MDM2_pS166.R.V", "result": "1.371 and 1.241 and 1.078"}, {"measurement": "RPPA level MEK1.R.V", "result": "0.858 and 3.823 and 2.342"}, {"measurement": "RPPA level MEK1_pS217_S221.R.V", "result": "0.758 and 1.168 and 1.336"}, {"measurement": "RPPA level MEK2.R.V", "result": "1.000 and 1.139"}, {"measurement": "RPPA level MERIT40.R.C", "result": "0.830 and 0.763"}, {"measurement": "RPPA level MERIT40_pS29.R.V", "result": "0.843 and 1.161"}, {"measurement": "RPPA level METTL3.R.V", "result": "1.391 and 1.001"}, {"measurement": "RPPA level MIF.R.C", "result": "1.003 and 0.889 and 0.956"}, {"measurement": "RPPA level MIG6.R.V", "result": "0.962 and 1.022 and 0.982"}, {"measurement": "RPPA level MITF.R.V", "result": "1.062 and 1.054 and 0.977"}, {"measurement": "RPPA level MLH1.M.V", "result": "0.822 and 0.867 and 0.972"}, {"measurement": "RPPA level MLKL.R.V", "result": "0.744 and 0.811 and 1.046"}, {"measurement": "RPPA level MMP2.R.V", "result": "1.019 and 0.966 and 0.959"}, {"measurement": "RPPA level MMP14.R.V", "result": "1.320 and 1.294 and 1.349"}, {"measurement": "RPPA level MR1.M.C", "result": "0.957 and 1.152 and 0.970"}, {"measurement": "RPPA level MRAP.R.C", "result": "0.958 and 1.263 and 1.157"}, {"measurement": "RPPA level MSH2.R.C", "result": "0.876 and 0.877 and 0.987"}, {"measurement": "RPPA level MSH6.R.C", "result": "1.224 and 1.204 and 1.063"}, {"measurement": "RPPA level MSI2.R.C", "result": "1.222 and 1.004"}, {"measurement": "RPPA level MTCO1.M.V", "result": "1.417 and 0.726"}, {"measurement": "RPPA level MTSS1.M.C", "result": "0.974 and 1.002 and 0.966"}, {"measurement": "RPPA level Mcl.1.R.V", "result": "0.716 and 0.788 and 1.009"}, {"measurement": "RPPA level MelanA.R.C", "result": 1.005}, {"measurement": "RPPA level Melanoma.gp100.R.C", "result": "0.910 and 0.978 and 1.134"}, {"measurement": "RPPA level Merlin.R.C", "result": "1.134 and 1.227 and 1.109"}, {"measurement": "RPPA level Midkine.R.V", "result": "0.990 and 0.926 and 0.994"}, {"measurement": "RPPA level Mitofusin.1.R.V", "result": "0.874 and 0.829 and 1.152"}, {"measurement": "RPPA level Mitofusin.2.R.V", "result": "0.751 and 0.836"}, {"measurement": "RPPA level Mnk1.R.V", "result": "0.933 and 0.905 and 1.031"}, {"measurement": "RPPA level mTOR.R.V", "result": "0.956 and 0.920"}, {"measurement": "RPPA level mTOR_pS2448.R.C", "result": "0.845 and 0.920 and 0.976"}, {"measurement": "RPPA p21.R.C", "result": "1.050 and 0.570 and 0.863"}, {"measurement": "RPPA p27.Kip1.R.C", "result": "1.342 and 1.132 and 0.997"}, {"measurement": "RPPA p27_pT157.R.C", "result": "1.309 and 1.207 and 1.127"}, {"measurement": "RPPA p27_pT198.R.V", "result": "1.003 and 1.297 and 1.169"}, {"measurement": "RPPA p38.MAPK.R.V", "result": "0.937 and 0.864 and 1.143"}, {"measurement": "RPPA p38.MAPK._pT180_Y182.R.V", "result": "0.828 and 1.168 and 1.281"}, {"measurement": "RPPA p38.a.M.V", "result": "0.862 and 0.943"}, {"measurement": "RPPA p44.42.MAPK.R.V", "result": "1.247 and 0.862 and 0.981"}, {"measurement": "RPPA p53.R.C", "result": "0.928 and 1.483 and 1.058"}, {"measurement": "RPPA p70.S6K1.R.V", "result": "1.060 and 0.948"}, {"measurement": "RPPA p70.S6K_pT389.R.V", "result": "0.797 and 1.020 and 1.171"}, {"measurement": "RPPA p90RSK_pT573.R.C", "result": "1.285 and 0.748 and 1.009"}]}]}
